Structures can show the parent of a compound that is named as a salt.
How the values were obtained:
[1] = test system: HT29 (colon adenocarcinoma); experiment: SRB cytotoxicity assay, HT29; type: cell-based, human; conditions: mean ± standard mean error
From the text: (§1) The cell lines were obtained from Department of Oncology (Martin-Luther-University Halle Wittenberg; they were bought from ATCC; A 375 (CRL-1619), HT29 (HTB-38), MCF7 (HTM-22), A2780 (HTP-77), FaDu (HTP-43), NIH 3T3 (CRL-1658), HEK-293 (CRL-1573)). Cultures were maintained as monolayers in RPMI 1640 medium with L-glutamine (Capricorn Scientific GmbH, Ebsdorfergrund, Germany) supplemented with 10% heat inactivated fetal bovine serum (Sigma-Aldrich Chemie GmbH, Steinheim, Germany) and penicillin/streptomycin (1%, Capricorn Scientific GmbH, Ebsdorfergrund, Germany) at 37 °C in a humidified atmosphere with 5% CO2. The cytotoxicity of the compounds was evaluated using the sulforhodamine-B (Kiton-Red S, ABCR) micro culture colorimetric assay using confluent cells in 96-well plates with the seeding of the cells on day 0 applying appropriate cell densities to prevent confluence of the cells during the period of the experiment. On day 1, the cells were treated with six different concentrations (1, 3, 7, 12, 20, and 30 μM); thereby, the final concentration of DMSO was always <0.5%, generally regarded as non-toxic to the cells. On day 4, the supernatant medium was discarded; the cells were fixed with 10% trichloroacetic acid. After another day at 4 °C, the cells were washed in a strip washer and dyed with the SRB solution (100 μL, 0.4% in 1% acetic acid) for about 20 min to be followed by washing of the plates (four times, 1% acetic acid) and air-drying overnight. Furthermore, tris base solution (200 μL, 10 mM) was added to each well and absorbance was measured at λ = 570 nm employing a reader (96 wells, Tecan Spectra, Crailsheim, Germany). The EC50 values were averaged from three independent experiments performed each in triplicate calculated from semi logarithmic dose response curves applying a non-linear four-parameter Hills-slope equation (GraphPad Prism5; variables top and bottom were set to 100 and 0, respectively).

[2] = test system: MCF-7 (breast adenocarcinoma); experiment: SRB cytotoxicity assay, MCF-7; type: cell-based; conditions: Homo sapiens, MCF7, 72 h of treatment, mean ± standard mean error
From the text: as §1

A375 (melanoma) = experiment: SRB cytotoxicity assay, A375; type: cell-based, human; conditions: Homo sapiens, mean ± standard mean error
From the text: as §1

[3] = test system: A2780 (ovarian carcinoma); experiment: SRB cytotoxicity assay, A2780; type: cell-based; conditions: Homo sapiens, 72 h of treatment, mean ± standard mean error
From the text: as §1

[4] = test system: NIH 3T3 (fibroblasts), non-malignant; experiment: SRB cytotoxicity assay, NIH 3T3; type: cell-based; conditions: Mus musculus, mean ± standard mean error
From the text: as §1

[5] = test system: FaDu (hypopharyngeal carcinoma); experiment: SRB cytotoxicity assay, FaDu; type: cell-based; conditions: Homo sapiens, 72 h of treatment, mean ± standard mean error
From the text: as §1

[6] = Homo sapiens, HT-29, 72 h, 72 h of treatment
[7] = NIH3T3, 72 h, 72 h of treatment

Compound | EC50 [1, 6] | EC50 [2] | EC50 (A375 (melanoma); A-375, 72 h, 72 h of treatment) | EC50 [3] | melting point | EC50 [4, 7] | EC50 [5] | EC50 ([1]; Homo sapiens, HT-29, 72 h of treatment) | EC50 (A375 (melanoma); A-375, 72 h of treatment) | EC50 ([4]; NIH3T3, 72 h of treatment) | EC50 ([1]; 72 h of treatment)
CC(=O)O[C@H]1CC[C@@]2(C)C(CC[C@]3(C)C2CC=C2C4CC(C)(C)CC[C@]4(C(=O)N4CCCNCC4)CC[C@]23C)C1(C)C (stereo partly drawn) [compound 10, 3β-Acetyloxy-28-(1-homopiperazinyl)-olean-12-en-28-one] | 1900 ± 100 nM | 1600 ± 100 nM | 1900 ± 900 nM | 2200 ± 100 nM | 182 to 185 °C | 1800 ± 200 nM |  |  |  |  | 
CC(=O)O[C@H]1CC[C@@]2(C)C(CC[C@]3(C)C2CC=C2C4[C@@H](C)[C@H](C)CC[C@]4(C(=O)N4CCCNCC4)CC[C@]23C)C1(C)C (stereo partly drawn) [compound 11, 3β-Acetyloxy28-(1-homopierazinyl)-urs-12-en-28-one] | 2000 ± 100 nM | 2400 ± 100 nM | 3200 ± 200 nM | 2900 ± 240 nM | 171 to 175 °C | 900 ± 100 nM |  |  |  |  | 
CC1(C)CC[C@]2(C(=O)O)CC[C@]3(C)C(=CC[C@@H]4[C@@]5(C)CC[C@H](O)C(C)(C)[C@@H]5CC[C@]43C)[C@@H]2C1 [OA, oleanolic acid, reference compound] | > 30000 nM | > 30000 nM | > 30000 nM | > 30000 nM |  | > 30000 nM | > 30000 nM |  |  |  | 
CC(=O)O[C@H]1CC[C@@]2(C)C(CC[C@]3(C)C2CC=C2C4[C@@H](C)[C@H](C)CC[C@]4(C(=O)N4CCNCC4)CC[C@]23C)C1(C)C (stereo partly drawn) [compound 7, 3β-Acetyloxy-28-(1-piperazinyl)-urs-12-en-28-one] | 1900 ± 300 nM | 1700 ± 200 nM | 2000 ± 400 nM | 2100 ± 100 nM | 187 to 190 °C | 2100 ± 100 nM |  |  |  |  | 
CC(=O)O[C@H]1CC[C@@]2(C)C(CC[C@]3(C)C2CCC2C4[C@H](C(C)=O)CC[C@]4(C(=O)N4CCCNCC4)CC[C@]23C)C1(C)C (stereo partly drawn) [compound 12, 3β-Acetyloxy-28-(1-homopiperazinyl)-30-norlupane-20,28-dione] | 2300 ± 200 nM | 1800 ± 200 nM | 900 ± 100 nM | 1600 ± 100 nM | 162 to 165 °C | 600 ± 100 nM |  |  |  |  | 
CC(=O)O[C@H]1CC[C@@]2(C)C(CC[C@]3(C)C2CC=C2C4CC(C)(C)CC[C@]4(C(=O)O)CC[C@]23C)C1(C)C (stereo partly drawn) [compound 2, 3β-Acetyloxy-olean-12-en-oic Acid] |  | 12900 ± 1900 nM |  | 9400 ± 500 nM |  |  | 11800 ± 900 nM | 20500 ± 1700 nM | 13000 ± 1100 nM | 17500 ± 1500 nM | 
C[C@H]1[C@H](C)CC[C@]2(C(=O)O)CC[C@]3(C)C(=CC[C@@H]4[C@@]5(C)CC[C@H](O)C(C)(C)[C@@H]5CC[C@]43C)[C@H]12 [UA, ursolic acid, reference compound] |  |  | 15400 ± 1000 nM |  |  |  | 18200 ± 1700 nM |  |  |  | 
CC(=O)[C@@H]1CC[C@]2(C(=O)O)CC[C@]3(C)[C@H](CC[C@@H]4[C@@]5(C)CC[C@H](O)C(C)(C)[C@@H]5CC[C@]43C)[C@@H]12 [PA, platanic acid, reference compound] | > 30000 nM | > 30000 nM | > 30000 nM | > 30000 nM |  | > 30000 nM | > 30000 nM |  |  |  | 
CCN(CC)c1ccc2c(-c3ccccc3C(=O)N3CCCN(C(=O)[C@]45CC[C@@H](C(C)=O)C4C4CCC6[C@@]7(C)CC[C@H](OC(C)=O)C(C)(C)C7CC[C@@]6(C)[C@]4(C)CC5)CC3)c3ccc(=[N+](CC)CC)cc-3oc2c1 (stereo partly drawn) (as salt: chloride) [compound 20, 9-[2-[[4-(3β-Acetyloxy-20,28-dioxo-30-norlupan-28-yl)-1-homopiperazinyl]carbonyl]phenyl]-3,6-bis(diethylamino)-xanthylium chloride] |  |  |  |  | 248 to 250 °C (dec.) |  |  |  |  |  | 
CC(=O)O[C@H]1CC[C@@]2(C)C(CC[C@]3(C)C2CC=C2C4[C@@H](C)[C@H](C)CC[C@]4(C(=O)N4CCCN(C(=O)c5ccccc5C5=c6cc7c8c(c6Oc6c5cc5c9c6CCCN9CCC5)CCC[N+]=8CCC7)CC4)CC[C@]23C)C1(C)C (stereo partly shown) (as salt: chloride) [compound 27] |  |  |  |  | > 300 °C |  |  |  |  |  | 
CCN(CC)c1ccc2c(-c3ccccc3C(=O)N3CCCN(C(=O)[C@]45CC[C@@H](C)[C@H](C)C4C4=CCC6[C@@]7(C)CC[C@H](OC(C)=O)C(C)(C)C7CC[C@@]6(C)[C@]4(C)CC5)CC3)c3ccc(=[N+](CC)CC)cc-3oc2c1 (stereo partly drawn) (as salt: chloride) (hydrate or solvate) [compound 19, 9-[2-[[4-(3β-Acetyloxy-28-oxo-urs-12-en-28-yl]-1-homopiperazinyl]carbonyl]phenyl]-3,6-bis(diethylamino)-xanthylium chloride] |  |  |  |  | 238 to 246 °C |  |  |  |  |  | 
CC(=O)O[C@H]1CC[C@@]2(C)C(CC[C@]3(C)C2CCC2C4[C@H](C(C)=O)CC[C@]4(C(=O)N4CCNCC4)CC[C@]23C)C1(C)C (stereo partly drawn) [compound 8, 3β-Acetyloxy-28-(1-piperazinyl)-30-norlupane-20,28-dione] | 3860 nM | 2700 ± 300 nM | 1900 ± 400 nM | 2600 ± 400 nM | 127 to 130 °C | 1300 ± 100 nM |  |  |  |  | 3900 ± 200 nM
CC(=O)O[C@H]1CC[C@@]2(C)C(CC[C@]3(C)C2CC=C2C4CC(C)(C)CC[C@]4(C(=O)N4CCNCC4)CC[C@]23C)C1(C)C (stereo partly drawn) [compound 6, 3β-Acetyloxy-28-(1-piperazinyl)-olean-12-en-28-one] | 1300 ± 100 nM | 1700 ± 200 nM | 1400 ± 200 nM | 1700 ± 100 nM | 172 to 175 °C | 1700 ± 100 nM |  |  |  |  | 
C=C(C)[C@@H]1CC[C@]2(C(=O)N3CCCN(C(=O)c4ccccc4-c4c5ccc(=[N+](CC)CC)cc-5oc5cc(N(CC)CC)ccc45)CC3)CC[C@]3(C)C(CCC4[C@@]5(C)CC[C@H](OC(C)=O)C(C)(C)C5CC[C@]43C)C12 (stereo partly drawn) (as salt: chloride) (hydrate or solvate) [compound 17, 9-[2-[[4-(3β-Acetyloxy-28-oxo-30-norlupan-28-yl)-1-homopiperazinyl]carbonyl]phenyl]-3,6-bis(diethylamino)-xanthylium chloride] |  |  |  |  | 261 to 266 °C |  |  |  |  |  | 
C=C(C)[C@@H]1CC[C@]2(C(=O)N3CCN(C(=O)c4ccccc4-c4c5ccc(=[N+](CC)CC)cc-5oc5cc(N(CC)CC)ccc45)CC3)CC[C@]3(C)C(CCC4[C@@]5(C)CC[C@H](OC(C)=O)C(C)(C)C5CC[C@]43C)C12 (stereo partly drawn) (as salt: chloride) [compound 13, 9-[2-[[4-(3β-Acetyloxy-28-oxo-lup-20(29)en-28-yl)-1-piperazinyl]carbonyl]phenyl]-3,6-bis(diethylamino)-xanthylium chloride] |  |  |  |  | 247 to 252 °C |  |  |  |  |  | 
CC(=O)O[C@H]1CC[C@@]2(C)C(CC[C@]3(C)C2CCC2C4[C@H](C(C)=O)CC[C@]4(C(=O)N4CCCN(C(=O)c5ccccc5C5=c6cc7c8c(c6Oc6c5cc5c9c6CCCN9CCC5)CCC[N+]=8CCC7)CC4)CC[C@]23C)C1(C)C (stereo partly shown) (as salt: chloride) [compound 28] |  |  |  |  | > 300 °C |  |  |  |  |  | 
COc1cccc2c1C(=O)c1c(O)c3c(c(O)c1C2=O)C[C@@](O)(C(=O)CO)C[C@@H]3O[C@H]1C[C@H](N)[C@H](O)[C@H](C)O1 [DX, doxorubicin, reference compound] | 900 ± 200 nM | 1100 ± 300 nM |  | 20 ± 10 nM |  |  | 1700 ± 300 nM |  |  |  | 

From publication PMC9000871, “Rhodamine 101 Conjugates of Triterpenoic Amides Are of Comparable Cytotoxicity as Their Rhodamine B Analogs” (Molecules, 2022)
